Data as given in ChEMBL document CHEMBL1201862, “PubChem BioAssay data set” (2004).
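Results reflect a 48-hour exposure of cells in 96-well plates to compound at five concentrations. GI50 = concentration required for 50% inhibition of growth.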 Active and inactive are the calls of the source. Cut-off read from the data, not from the text of the source: active = GI50 up to about 1.1 µM and inactive = higher.

What was measured:
Assay in all cases: growth of human tumour cells (NCI), 48 h
NCI-H522 = tested on: NCI-H522
UACC-257 = tested on: UACC-257
RPMI-8226 = tested on: RPMI-8226
HCT-116 = tested on: HCT-116
HCT-15 = tested on: HCT-15
TK-10 = tested on: TK-10
ACHN = tested on: ACHN
OVCAR-8 = tested on: OVCAR-8
HT-29 = tested on: HT-29
U-251 = tested on: U-251
DU-145 = tested on: DU-145
KM12 = tested on: KM12
RXF 393 = tested on: RXF 393
NCI-H226 = tested on: NCI-H226
MCF7 = tested on: MCF7
SF-539 = tested on: SF-539
SR = tested on: SR
SK-OV-3 = tested on: SK-OV-3
MOLT-4 = tested on: MOLT-4

Row | Structure (SMILES) | GI50 (NCI-H522) | GI50 (UACC-257) | GI50 (RPMI-8226) | GI50 (HCT-116) | GI50 (HCT-15) | GI50 (TK-10) | GI50 (ACHN) | GI50 (OVCAR-8) | GI50 (HT-29) | GI50 (U-251) | GI50 (DU-145) | GI50 (KM12) | GI50 (RXF 393) | GI50 (NCI-H226) | GI50 (MCF7) | GI50 (SF-539) | GI50 (SR) | GI50 (SK-OV-3) | GI50 (MOLT-4)
1 | O=S(=O)(c1cnccc1N1CCN(CCO)CC1)N1CCCC1 | > 100 µM (inactive) | > 100 µM (inactive) | > 100 µM (inactive) | > 100 µM (inactive) | > 100 µM | > 100 µM (inactive) | > 100 µM (inactive) | > 100 µM (inactive) | > 100 µM (inactive) | > 100 µM (inactive) | > 100 µM (inactive) | > 100 µM (inactive) | > 100 µM (inactive) | > 100 µM (inactive) | > 100 µM (inactive) | > 100 µM (inactive) | > 100 µM (inactive) | > 100 µM (inactive) | –
2 | O=C1C(CN2CCCC2)CCCC1CN1CCCC1 (configuration not stated) | 0.0495 µM (active) | 2.1 µM (inactive) | 0.9 µM (active) | 1.8 µM (inactive) | 2.19 µM | 2.19 µM (inactive) | 1.82 µM (inactive) | 4.37 µM (inactive) | 14.7 µM (inactive) | 19.6 µM (inactive) | 19.8 µM (inactive) | 19.7 µM (inactive) | 2.69 µM (inactive) | 22.1 µM (inactive) | 0.658 µM (active) | 7.36 µM (inactive) | 3.04 µM (inactive) | 17.4 µM (inactive) | 0.258 µM (active)
3 | COc1ccc(/C=C/C(=O)c2cccc(C(=O)/C=C/c3ccc(OC)c(OC)c3)n2)cc1OC | 4.75 µM (inactive) | 39.6 µM (inactive) | 3.23 µM (inactive) | 7.96 µM (inactive) | 14 µM | > 100 µM (inactive) | 25.8 µM (inactive) | 3.27 µM (inactive) | 7.87 µM (inactive) | 6.52 µM (inactive) | > 100 µM (inactive) | > 55.6 µM (inactive) | 40.4 µM (inactive) | > 100 µM (inactive) | 3.64 µM (inactive) | 14.4 µM (inactive) | 2.91 µM (inactive) | > 100 µM (inactive) | 2.82 µM (inactive)
4 | COC(=O)[C@@H](NC(=O)c1ccc(CNC(=O)/C(C)=C/c2ccccc2)cc1)C(C)C | 83.9 µM (inactive) | 14.2 µM (inactive) | 69.8 µM (inactive) | > 100 µM (inactive) | > 100 µM | > 100 µM (inactive) | > 100 µM (inactive) | > 100 µM (inactive) | > 100 µM (inactive) | > 100 µM (inactive) | > 100 µM (inactive) | 36.1 µM (inactive) | 79.6 µM (inactive) | > 100 µM (inactive) | 42.2 µM (inactive) | > 100 µM (inactive) | > 100 µM (inactive) | > 100 µM (inactive) | 78.2 µM (inactive)
5 | C/C=C\C1OC1(C)c1cc(=O)c2c(C)cc3c(c2o1)C(=O)c1c(O)c(C2CC(C)(N(C)C)C(OC(C)=O)C(C)O2)cc(C2CC(N(C)C)C(O)C(C)O2)c1C3=O (configuration not stated) | < 0.00375 µM (active) | 0.00984 µM (active) | < 0.00375 µM (active) | < 0.00375 µM (active) | 0.00404 µM | 0.0113 µM (active) | < 0.00375 µM (active) | < 0.00375 µM (active) | < 0.00375 µM (active) | < 0.00375 µM (active) | 0.00405 µM (active) | 0.0042 µM (active) | < 0.00375 µM (active) | 0.00461 µM (active) | < 0.00375 µM (active) | 0.00433 µM (active) | < 0.00375 µM (active) | 0.00432 µM (active) | < 0.00375 µM (active)
6 | O=C1CSC2(CC(/C=C/c3cccc(Br)c3)=NN2c2cccc(S(=O)(=O)O)c2)N1c1nc2ccccc2s1 (configuration not stated) | 58.5 µM (inactive) | > 100 µM (inactive) | 25.5 µM (inactive) | > 100 µM (inactive) | > 100 µM | > 100 µM (inactive) | > 100 µM (inactive) | > 79.8 µM (inactive) | > 100 µM (inactive) | > 100 µM (inactive) | > 100 µM (inactive) | > 90.8 µM (inactive) | > 100 µM (inactive) | > 100 µM (inactive) | 65.6 µM (inactive) | > 100 µM (inactive) | 41.5 µM (inactive) | > 100 µM (inactive) | > 100 µM (inactive)
7 | Cc1csc(NC23CC4CC(CC(C4)C2)C3)[n+]1C(P(=O)([O-])O)P(=O)(O)O (configuration not stated) | > 100 µM (inactive) | > 100 µM (inactive) | > 100 µM (inactive) | > 100 µM (inactive) | > 100 µM | > 100 µM (inactive) | > 100 µM (inactive) | > 100 µM (inactive) | > 100 µM (inactive) | > 100 µM (inactive) | > 100 µM (inactive) | > 100 µM (inactive) | > 100 µM (inactive) | > 100 µM (inactive) | > 100 µM (inactive) | > 100 µM (inactive) | > 100 µM (inactive) | > 100 µM (inactive) | > 100 µM (inactive)
8 | O=C1C=CC(=O)C(CNc2ccc(C(=O)OC34CC5CC(CC(C5)C3)C4)cc2)=C1 | 0.776 µM (active) | 6.04 µM (inactive) | 1.93 µM (inactive) | 10 µM (inactive) | 2.44 µM | 11.5 µM (inactive) | 6.28 µM (inactive) | 5.11 µM (inactive) | 9.44 µM (inactive) | 4.06 µM (inactive) | 19.4 µM (inactive) | 5.94 µM (inactive) | 1.71 µM (inactive) | 2 µM (inactive) | 3.43 µM (inactive) | 2.49 µM (inactive) | 3.81 µM (inactive) | 20 µM (inactive) | 1.51 µM (inactive)
9 | CC(C)/C(Cl)=N/OC(=O)Nc1ccc(F)c(Cl)c1 | 1.65 µM (inactive) | 13.5 µM (inactive) | 1.87 µM (inactive) | 2.54 µM (inactive) | 1.93 µM | 17.9 µM (inactive) | 1.88 µM (inactive) | 17.4 µM (inactive) | 5.69 µM (inactive) | 21.1 µM (inactive) | 16.2 µM (inactive) | 16.6 µM (inactive) | 12.9 µM (inactive) | 16.6 µM (inactive) | 6.64 µM (inactive) | 6.43 µM (inactive) | 1.56 µM (inactive) | 16.4 µM (inactive) | 1.94 µM (inactive)
10 | CC(C)c1c(O)c(O)c2c(c1O)C(=O)C(O)=C1C(C)(C)CCC[C@@]12C | 3.56 µM (inactive) | 2.67 µM (inactive) | 1.26 µM (inactive) | 3.4 µM (inactive) | 3.66 µM | 3.86 µM (inactive) | 2.96 µM (inactive) | 2.71 µM (inactive) | 2.94 µM (inactive) | 2.77 µM (inactive) | 4.13 µM (inactive) | 3.44 µM (inactive) | 2.86 µM (inactive) | 3.01 µM (inactive) | 3.13 µM (inactive) | 3.59 µM (inactive) | 4.05 µM (inactive) | 3.81 µM (inactive) | 2.96 µM (inactive)
11 | CCCCSc1nsc(N(C(=O)c2ccccc2)C(=O)c2ccccc2)n1 | 25.4 µM (inactive) | 27.3 µM (inactive) | 21.6 µM (inactive) | 28.8 µM (inactive) | 30.3 µM | 36.4 µM (inactive) | 49.1 µM (inactive) | 34.8 µM (inactive) | 29.8 µM (inactive) | 32.4 µM (inactive) | 33.8 µM (inactive) | 33.5 µM (inactive) | 32.3 µM (inactive) | 29.7 µM (inactive) | 32.2 µM (inactive) | 25.1 µM (inactive) | 21.6 µM (inactive) | 31.4 µM (inactive) | 24.2 µM (inactive)
12 | Cc1ccc(C2(N3CCCC3)OC(C)(C)c3cccc4cccc2c34)cc1 (configuration not stated) | 12.9 µM (inactive) | 16.9 µM (inactive) | 22.3 µM (inactive) | 15.6 µM (inactive) | 15.6 µM | 16.8 µM (inactive) | 15.8 µM (inactive) | 15.2 µM (inactive) | 13.4 µM (inactive) | 16 µM (inactive) | 16.9 µM (inactive) | 27.9 µM (inactive) | 13.5 µM (inactive) | 15.3 µM (inactive) | 17.1 µM (inactive) | 16.9 µM (inactive) | 23.2 µM (inactive) | 15.6 µM (inactive) | 20.7 µM (inactive)
13 | COc1cc([N+](=O)[O-])c(S(=O)(=O)[O-])cc1-[n+]1nc(C(=O)Nc2ccccc2)nn1-c1ccc([N+](=O)[O-])c(S(=O)(=O)O)c1 | > 100 µM (inactive) | – | > 100 µM (inactive) | > 100 µM (inactive) | > 100 µM | > 100 µM (inactive) | > 100 µM (inactive) | – | > 100 µM (inactive) | > 100 µM (inactive) | > 100 µM (inactive) | > 100 µM (inactive) | > 100 µM (inactive) | > 100 µM (inactive) | > 100 µM (inactive) | > 100 µM (inactive) | > 100 µM (inactive) | > 100 µM (inactive) | > 100 µM (inactive)
14 | CN(C)CCCNc1ccc2c(=O)n(CCN(C)C)c(=O)n3c4ccccc4c(=O)c1c23 | 0.101 µM (active) | 0.396 µM (active) | 0.129 µM (active) | 0.0752 µM (active) | 0.0562 µM | 0.518 µM (active) | 0.0752 µM (active) | 0.22 µM (active) | 0.0647 µM (active) | 0.234 µM (active) | 0.124 µM (active) | 0.159 µM (active) | 0.783 µM (active) | 0.368 µM (active) | 0.0885 µM (active) | 0.486 µM (active) | 0.022 µM (active) | 0.582 µM (active) | 0.0268 µM (active)
15 | C[N+](C)(C)CCOP(=O)([O-])OCCNC(=O)c1ccc2ccccc2c1 | > 100 µM (inactive) | > 100 µM (inactive) | > 100 µM (inactive) | > 100 µM (inactive) | > 100 µM | > 100 µM (inactive) | > 100 µM (inactive) | > 100 µM (inactive) | > 100 µM (inactive) | > 100 µM (inactive) | > 100 µM (inactive) | > 100 µM (inactive) | > 100 µM (inactive) | > 100 µM (inactive) | > 100 µM (inactive) | > 100 µM (inactive) | > 100 µM (inactive) | > 100 µM (inactive) | > 100 µM (inactive)
